We go through nine compounds from patent US20200102264A1, “MARMELIN ANALOGS AND METHODS OF USE IN CANCER TREATMENT” (THE UNIVERSITY OF KANSAS, priority 2014, published 2020).

A word on the IC50: it is the concentration that gives 50% inhibition.

SMILES strings stand for the structures. “Also recorded” adds a separate entry of the source.

Assay type in all cases: cell-based
Experiment [1] has as its system HCT116 colon cancer cells. Put plainly: hexoseaminidase cell proliferation assay, HCT116. The source says: (§1) Using hexoseaminidase assay, we determined the effect of the compounds on cell proliferation. […]
(§2) Using hexoseaminidase assay, we determined the effect of the compounds on cell proliferation. […] […] […] Overall, the analogs can be used as chemotherapeutic agents against colon and pancreatic cancer.

Experiment [2] relates to MiaPaCa-2 pancreatic cancer cells. In words: hexoseaminidase cell proliferation assay, MiaPaCa-2. The method, then:
(§3) Using hexoseaminidase assay, we determined the effect of the compounds on cell proliferation. […] The IC50 value at 48 hours is below 10 μM in all the cancer cell lines.
(§4) Using hexoseaminidase assay, we determined the effect of the compounds on cell proliferation. […] The MRL16 IC50 value at 48 hours is below 0.3 μM in Colon cancer cell lines. […] Overall, the analogs can be used as chemotherapeutic agents against colon and pancreatic cancer.

The test system of experiment [3] is colon, pancreatic and bladder cancer cells. In words: hexoseaminidase cell proliferation assay, summaries over cell lines. As to conditions: dose and time dependent. The method, then: Water solubility studies were performed with the CD/analog complexes. […] The observed IC50 value of THBCD at 48 h is below 10 μM in all the colon, pancreatic and bladder cancer cells.
as §3, §4

Experiment [4] relates to PanC-1 pancreatic cancer cells. Put plainly: hexoseaminidase cell proliferation assay, PanC-1. On the procedure: as §3, §4
Experiment [5] relates to SW480 colon cancer cells. In words: hexoseaminidase cell proliferation assay, SW480.
Text: as §1, §2

Experiment [6] deals with PanC-1 cells. Put plainly: colony formation, PanC-1.
Experiment [7] relates to SW480 cells. In words: colony formation, SW480.
Experiment [8] concerns HCT116 cells. In words: colony formation, HCT116.
Experiment [9] relates to MiaPaCa-2 cells. Put plainly: colony formation, MiaPaCa-2.
Experiment [10] deals with cancer stem cells. In words: colonosphere formation. On the procedure: It was also determined the analogs inhibit colonosphere formation from cancer stem cells. […] The columns are 0, 10, 25, and 50 micromolar concentrations of the compounds labeled by rows.
The effect of the compounds on colonosphere formation was determined. […] Overall, the analogs have shown they can be used as chemotherapeutic agents against colon, pancreatic and bladder cancer.

Experiment [11] concerns 253JBV bladder cancer cells. In words: hexoseaminidase cell proliferation assay, 253JBV. The method, then: as §3
The test system of experiment [12] is KU7 bladder cancer cells. Put plainly: hexoseaminidase cell proliferation assay, KU7. On the procedure: as §3
Experiment [13] deals with HCT116 cells. Put plainly: cell cycle analysis, HCT116. The settings on record: HCT116, Table 3.
The subject of experiment [14] is SW480 cells. Put plainly: cell cycle analysis, SW480. As to conditions: SW480, Table 3. The method, then:
The analogs were tested to determine the ability induce death of colon cancer cells.

The mark [15] stands for this setting: Homo sapiens, HCT-116, HCT116, 24 h.
The mark [16] stands for this setting: Homo sapiens, HCT-116, HCT116, 48 h.
Setting [17] is: Homo sapiens, HCT-116, HCT116, 72 h.
Where [18] appears, read: Homo sapiens, MIA PaCa-2, MiaPaCa-2, 24 h.
Setting [19] is: Homo sapiens, MIA PaCa-2, MiaPaCa-2, 48 h.
Setting [20] is: Homo sapiens, MIA PaCa-2, MiaPaCa-2, 72 h.

As to `C/C(=N\NC(=O)c1ccccc1O)c1ccc2ccccc2c1O` [MRL18], the IC50 in experiment [1] (setting [15]) is > 10 µM; in [1] (setting [16]) it was 3 µM; in experiment [1] (setting [17]), 1 µM; in experiment [2] (setting [18]), > 10 µM; in experiment [2] (setting [19]) it was > 10 µM; in experiment [2] (setting [20]), 10 µM. Moreover, the IC50 is > 10 µM in [4] (Homo sapiens, PANC-1, 24 h); 4 µM in [4] (Homo sapiens, PANC-1, 48 h); 2 µM in experiment [4] (Homo sapiens, PANC-1, 72 h); > 10 µM in [5] (Homo sapiens, SW480, 24 h); 5 µM in experiment [5] (Homo sapiens, SW480, 48 h); 3 µM in experiment [5] (Homo sapiens, SW480, 72 h). The “inhibition of cell proliferation (in words)” value (“inhibition” for short) in experiment [3] is “potent inhibitor”.
`C/C(=N\NC(=O)c1ccco1)c1ccc2ccccc2c1O` [MRL21]: the IC50 in [1] (HCT116, 24 h) is 10 µM; in [1] (HCT116, 48 h), 3.8 µM; in [1] (HCT116, 72 h), 3 µM; in experiment [2] (MiaPaCa-2, 24 h), > 10 µM; in [2] (MiaPaCa-2, 48 h), 5 µM; in experiment [2] (MiaPaCa-2, 72 h), 5 µM. In addition, the IC50 in [4] (PanC-1, 24 h) is > 10 µM; in [4] (PanC-1, 48 h) it was 5 µM; in experiment [4] (PanC-1, 72 h), 3 µM; in experiment [5] (SW480, 24 h), > 10 µM; in [5] (SW480, 48 h), 5 µM; in experiment [5] (SW480, 72 h), 3 µM. In addition, the “inhibition” value in experiment [3] is given as “potent inhibitor”.
Turning to `O=C(N/N=C/c1ccccc1O)c1cc2ccccc2cc1O` [SAL], the IC50 in experiment [1] (HCT116, 24 h) is 25 µM; in [1] (HCT116, 48 h), 8 µM; in experiment [1] (HCT116, 72 h), 6 µM; in [2] (MiaPaCa-2, 24 h) it was > 50 µM; in experiment [2] (MiaPaCa-2, 48 h) it was > 50 µM; in experiment [2] (MiaPaCa-2, 72 h), 8 µM. Moreover, the IC50 in experiment [4] (PanC-1, 24 h) is > 50 µM; in experiment [4] (PanC-1, 48 h), 10 µM; in [4] (PanC-1, 72 h) it was 8 µM; in experiment [5] (SW480, 24 h) it was > 50 µM; in experiment [5] (SW480, 48 h), > 50 µM; in experiment [5] (SW480, 72 h), 8 µM. Moreover, the colony formation result in experiment [6], in experiment [7], in [8] and in [9] was “inhibit colony formation” throughout. For the same compound, the colonosphere formation entry in [10] was “potent inhibitors of colonosphere formation”.
As to `C/C(=N\NC(=O)c1cc2ccccc2cc1O)c1ccc2ccccc2c1O` [MRL20], the IC50 in experiment [1] (HCT116, 24 h) was > 2 µM; in experiment [1] (HCT116, 48 h), 0.5 µM; in experiment [1] (HCT116, 72 h), 0.4 µM; in experiment [2] (MiaPaCa-2, 24 h) it was > 10 µM; in experiment [2] (MiaPaCa-2, 48 h), 9 µM; in experiment [2] (MiaPaCa-2, 72 h), 8 µM. Further, the IC50 in [4] (PanC-1, 24 h) is > 10 µM; in experiment [4] (PanC-1, 48 h), 5 µM; in [4] (PanC-1, 72 h), 1 µM; in experiment [5] (SW480, 24 h) it was > 2 µM; in experiment [5] (SW480, 48 h), 1.2 µM; in experiment [5] (SW480, 72 h), 1 µM. Further, the “inhibition” value in experiment [3] is “potent inhibitor”.
In the case of `O=C(N/N=C/c1ccc2ccccc2c1O)c1cc2ccccc2cc1O` [NAL], the IC50 in experiment [1] (HCT116, 24 h) was 10 µM; in experiment [1] (HCT116, 48 h), 6 µM; in [1] (HCT116, 72 h), 6 µM; in [11] (24 h) it was > 50 µM; in [11] (48 h), 10 µM; in experiment [11] (72 h), 7 µM. The IC50 came to 40 µM in [2] (MiaPaCa-2, 24 h); 8 µM in [2] (MiaPaCa-2, 48 h); 6 µM in experiment [2] (MiaPaCa-2, 72 h); 10 µM in experiment [12] (KU7, 24 h); 10 µM in experiment [12] (KU7, 48 h); 6 µM in [12] (KU7, 72 h). Also, the IC50 turned out to be 45 µM in experiment [4] (PanC-1, 24 h); 10 µM in [4] (PanC-1, 48 h); 7 µM in experiment [4] (PanC-1, 72 h); 25 µM in experiment [5] (SW480, 24 h); 8 µM in [5] (SW480, 48 h); 8 µM in experiment [5] (SW480, 72 h). Moreover, the colony formation result in [6], in experiment [7], in [8] and in [9] was “inhibit colony formation” in each case. The “inhibition” value in [3] is “potent inhibitor”. The colonosphere formation entry in [10] is “potent inhibitors of colonosphere formation”.
Regarding `C/C(=N\NC(=O)c1ccc(O)cc1)c1ccc2ccccc2c1O` [MRL24], the IC50 is > 10 µM in [1] (setting [15]); 3.5 µM in experiment [1] (setting [16]); 2 µM in experiment [1] (setting [17]); > 10 µM in experiment [2] (setting [18]); > 10 µM in experiment [2] (setting [19]); 5 µM in [2] (setting [20]). Also, the 50% inhibitory concentration (IC50) in experiment [4] (Homo sapiens, PANC-1, 24 h) was > 10 µM; in experiment [4] (Homo sapiens, PANC-1, 48 h), 5 µM; in experiment [4] (Homo sapiens, PANC-1, 72 h), 4 µM; in experiment [5] (Homo sapiens, SW480, 24 h) it was > 10 µM; in experiment [5] (Homo sapiens, SW480, 48 h), 10 µM; in [5] (Homo sapiens, SW480, 72 h), 4 µM. Moreover, the “inhibition” value in experiment [3] is reported as “potent inhibitor”.
Regarding `C/C(=N\NC(=O)c1ccccc1)c1ccc2ccccc2c1O` [MRL19], the IC50 in experiment [1] (setting [15]) was > 10 µM; in [1] (setting [16]) it was 5 µM; in [1] (setting [17]) it was 2.3 µM; in experiment [2] (setting [18]), > 10 µM; in [2] (setting [19]), > 10 µM; in experiment [2] (setting [20]) it was > 10 µM. The IC50 is > 10 µM in experiment [4] (Homo sapiens, PANC-1, 24 h); 10 µM in experiment [4] (Homo sapiens, PANC-1, 48 h); 4 µM in experiment [4] (Homo sapiens, PANC-1, 72 h); > 10 µM in [5] (Homo sapiens, SW480, 24 h); > 10 µM in experiment [5] (Homo sapiens, SW480, 48 h); 5 µM in [5] (Homo sapiens, SW480, 72 h). Also, the “inhibition” value in experiment [3] is listed as “potent inhibitor”.
Consider `O=C(N/N=C/c1ccc(O)c(O)c1)c1cc2ccccc2cc1O` [MRL DHB], for which the IC50 in experiment [1] (HCT116, 24 h) was > 50 µM; in experiment [1] (HCT116, 48 h), > 50 µM; in [2] (MiaPaCa-2, 24 h) it was > 50 µM; in experiment [2] (MiaPaCa-2, 48 h) it was 25 µM; in experiment [2] (MiaPaCa-2, 72 h) it was 10 µM; in experiment [2] (MiaPaCa-2, 72 h, listed as DHB), 25 µM. In addition, the IC50 was > 50 µM in [4] (PanC-1, 24 h); 15 µM in experiment [4] (PanC-1, 48 h); 10 µM in experiment [4] (PanC-1, 48 h, listed as DHB); 8 µM in experiment [4] (PanC-1, 72 h); > 50 µM in [5] (SW480, 24 h); > 50 µM in experiment [5] (SW480, 48 h). In addition, half-maximal inhibition in [5] (SW480, 72 h) (IC50) required 15 µM. Moreover, in [3], the “inhibition” value is on record as “potent inhibitor of proliferation of pancreatic cancer cells; also recorded: inhibit proliferation”. Besides, the “G0/G1 (%)” value in [13] is recorded as 40.7%; in experiment [14] it was 60.7%. For the same compound, the figures for the “G2M (%)” value in experiment [13] and in experiment [14] were 10.4% and 18.4%, respectively. Moreover, the figures for the “S (%)” value in experiment [13] and in experiment [14] were 13.0% and 14.1%, respectively. For the same compound, the “SubG0 Dead Cells (%)” value in experiment [13] is reported as 34.2%; in [14], 6.1%. For the same compound, the colony formation result in experiment [7] and in experiment [8] was “significantly inhibited colony formation” throughout. Besides, the colonosphere formation result in [10] was “significantly inhibited colonosphere formation”.
As for `C/C(=N\NC(N)=S)c1ccc2ccccc2c1O` [MRL23], the IC50 in [1] (setting [15]) was > 10 µM; in [1] (setting [16]) it was > 10 µM; in experiment [1] (setting [17]), > 10 µM; in experiment [2] (setting [18]), > 10 µM; in experiment [2] (setting [19]), 5 µM; in [2] (setting [20]) it was 4 µM. Further, the IC50 in experiment [4] (Homo sapiens, PANC-1, 24 h) was > 10 µM; in experiment [4] (Homo sapiens, PANC-1, 48 h), > 10 µM; in experiment [4] (Homo sapiens, PANC-1, 72 h), > 10 µM; in experiment [5] (Homo sapiens, SW480, 24 h), > 10 µM; in experiment [5] (Homo sapiens, SW480, 48 h), > 10 µM; in [5] (Homo sapiens, SW480, 72 h) it was > 10 µM. Also, the “inhibition” value in experiment [3] is recorded as “potent inhibitor”.
